Data on three compounds can be found in US20030186845A1, “Compositions for preventing urinary calculus” (priority 2000, published 2003).

Each structure is given as a SMILES string.

Test [1] relates to male rats. Kind of test: Calculus prevention effect by DTPA (repeated intravenous administration, 2 weeks, two lots). Particulars: for Urinary occult blood: occurrences/inspections. It is filed as in vivo. The procedure: Toxicity studies by repeated intravenous administration were conducted on male rats for 2 weeks using, as a specimen, R-CHI3-DTPA-Gd to which DTPA was added. In this test, two lots (hereinafter called lot #1 and lot #2) of R-CHI3-DTPA-Gd were provided, and the following administered groups were set up. […] As control groups, were set up a group that was administered with a physiological saline and a group that was free from a chelating agent (i.e., administered with […] of lot (1) only). Except the physiological saline-administered group, the dose as R-CHI3-DTPA-Gd was 0.33 mmol/kg.

Test [2] deals with male rats. Kind of test: Calculus prevention effect by chelating agents (repeated intravenous administration, 2 weeks). It is filed as in vivo. The following applies: for Calculi / Hyperplasia of vesical transitional epithelium / Urinary occult blood: mixed with R-CHI3-DTPA-Gd 0.33 mmol/kg i.v.; for Calculi / Hyperplasia of vesical transitional epithelium / Effect of inhibiting production of calculi: male rats; for Urinary occult blood: occurrences/total daily inspections for 14 days; for Effect of inhibiting production of calculi: specimens of R-CHI3-DTPA-Gd mixed with chelating agent, summary in words. On the procedure:
To R-CHI3-DTPA-Gd, was added diethylenetriaminepentaacetic acid (DTPA), its calcium complex, or calcium complex of ethylenediaminetetraacetic acid (EDTA). Using them as specimens, toxicity studies by repeated intravenous administration were conducted on male rats for 2 weeks. A group, which is called DTPA-10 group, was administered with a specimen of R-CHI3-DTPA-Gd mixed with DTPA in an amount equivalent to 10 mmol per 500 mmol of the DTPA-Gd portion of the R-CHI3-DTPA-Gd; a group, which is called DTPA-Ca-10 group, was administered with a specimen mixed with calcium complex of DTPA in an amount equivalent to 10 mmol; a group, which is called EDTA-Ca-1 group, was administered with a specimen mixed with calcium complex of EDTA in an amount equivalent 1 mmol; and a group, which is called EDTA-Ca-10 group, was administered with a specimen mixed with calcium complex of EDTA in an amount equivalent to 10 mmol. DTPA and others were mixed with R-CHI3-DTPA-Gd immediately before administration. As control groups, were set up a group that was administered with a physiological saline and a group that was free from a chelating agent (i.e., administered with R-CHI3-DTPA-Gd only). Except the physiological saline-administered group, the dose as R-CHI3-DTPA-Gd was 0.33 mmol/kg.
(The chelating agent-free group is estimated to include individuals that discharged calculi from their urinary bladders, judging from the hyperplasia of vesical transitional epithelium and the frequency of urinary occult blood.)

Where [3] appears, read: DTPA 1 mmol per 500 mmol DTPA-Gd portion, R-CHI3-DTPA-Gd lot #1, 0.33 mmol/kg i.v.
Where [4] appears, read: DTPA 1 mmol per 500 mmol DTPA-Gd portion, R-CHI3-DTPA-Gd lot #2, 0.33 mmol/kg i.v.
Where [5] appears, read: DTPA 1.3 mmol per 500 mmol DTPA-Gd portion, R-CHI3-DTPA-Gd lot #2, 0.33 mmol/kg i.v.
The mark [6] stands for this setting: DTPA 3 mmol per 500 mmol DTPA-Gd portion, R-CHI3-DTPA-Gd lot #1, 0.33 mmol/kg i.v.
[7] abbreviates: DTPA 10 mmol per 500 mmol DTPA-Gd portion, R-CHI3-DTPA-Gd lot #2, 0.33 mmol/kg i.v.
The mark [8] stands for this setting: chelating agent 10 mmol per 500 mmol DTPA-Gd portion.
[9] abbreviates: chelating agent 1 mmol per 500 mmol DTPA-Gd portion.

For `O=C(O)CN(CCN(CC(=O)O)CC(=O)O)CCN(CC(=O)O)CC(=O)O` [DTPA, diethylenetriaminepentaacetic acid], the Calculi with male rats [1] (setting [3]) was 5/10; in the test on male rats [1] (setting [4]), 5/10; with male rats [1] (setting [5]) it was 5/10; in the test on male rats [1] (setting [6]), 5/10; in the test on male rats [1] (setting [7]), 3/10; with male rats [2] (setting [8]), 0/10. The “Hyperplasia of vesical transitional epithelium” value (“Hyperplasia” for short) in the test on male rats [1] (setting [3]) is given as 7/10; in the test on male rats [1] (setting [4]), 6/10; in the test with male rats [1] (setting [5]), 7/10; with male rats [1] (setting [6]), 5/10; in the test on male rats [1] (setting [7]) it was 4/10; with male rats [2] (setting [8]), 0/10. Besides, the Urinary occult blood was 24/140 with male rats [1] (setting [3]); 27/140 in the test on male rats [1] (setting [4]); 26/140 in the test with male rats [1] (setting [5]); 17/140 in the test on male rats [1] (setting [6]); 19/140 with male rats [1] (setting [7]); 8/140 in the test on male rats [2] (setting [8]). In the test with male rats [2], the “Effect of inhibiting production of calculi” value is on record as “significant effect”.
With `O=C([O-])CN(CCN(CCN(CC(=O)[O-])CC(=O)O)CC(=O)O)CC(=O)O.[Ca+2]` [DTPA-Ca], in the test on male rats [2] (setting [8]), the Calculi is recorded as 0/10, the “Hyperplasia” value was 0/10 and the Urinary occult blood is 3/140. In addition, the “Effect of inhibiting production of calculi” value in the test with male rats [2] is “significant effect”.
On to `O=C([O-])CN(CCN(CC(=O)[O-])CC(=O)O)CC(=O)O.[Ca+2]` [EDTA-Ca], for which, in the test with male rats [2] (setting [9]), the Calculi was 4/10, the “Hyperplasia” value is given as 2/10 and the Urinary occult blood was 17/140. In the test with male rats [2] (setting [8]), the Calculi was 1/10, the “Hyperplasia” value is given as 1/10 and the Urinary occult blood is on record as 6/140. The “Effect of inhibiting production of calculi” value in the test with male rats [2] was “week effect”.
